Results reported in ChEMBL document CHEMBL1139589, “In vitro antiproliferative activity against human colon cancer cell lines of representative 4-thiazolidinones. Part I” (Bioorg Med Chem Lett, 2005).

Tests used:
[1] = target: T1, Prostaglandin G/H synthase 2 (Homo sapiens) (UniProt P35354); conditions: at 10 µM
T1 sequence (whole entry): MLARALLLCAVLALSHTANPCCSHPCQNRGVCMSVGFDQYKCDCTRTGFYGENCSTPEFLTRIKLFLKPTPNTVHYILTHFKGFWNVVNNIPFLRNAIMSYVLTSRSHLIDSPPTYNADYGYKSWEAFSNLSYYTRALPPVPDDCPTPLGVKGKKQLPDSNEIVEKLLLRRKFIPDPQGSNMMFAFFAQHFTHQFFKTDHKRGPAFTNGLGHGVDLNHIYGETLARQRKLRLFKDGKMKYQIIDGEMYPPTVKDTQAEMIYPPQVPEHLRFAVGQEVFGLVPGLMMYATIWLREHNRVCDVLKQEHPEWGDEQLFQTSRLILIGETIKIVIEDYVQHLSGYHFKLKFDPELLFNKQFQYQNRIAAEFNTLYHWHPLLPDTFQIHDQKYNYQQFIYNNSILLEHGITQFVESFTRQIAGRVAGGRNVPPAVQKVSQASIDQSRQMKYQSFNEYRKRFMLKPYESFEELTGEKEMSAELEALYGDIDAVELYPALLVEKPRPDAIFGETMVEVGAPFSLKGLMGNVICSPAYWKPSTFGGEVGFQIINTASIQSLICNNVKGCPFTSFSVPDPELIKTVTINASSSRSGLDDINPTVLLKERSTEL
Description: Percentage inhibition activity at a concentration of 10 uM against cyclooxygenase 2 with the compound dissolved in DMSO

[2] = target: T2, Prostaglandin G/H synthase 1 (Homo sapiens, UniProt P23219); conditions: at 10 µM
T2 sequence (P23219 whole entry): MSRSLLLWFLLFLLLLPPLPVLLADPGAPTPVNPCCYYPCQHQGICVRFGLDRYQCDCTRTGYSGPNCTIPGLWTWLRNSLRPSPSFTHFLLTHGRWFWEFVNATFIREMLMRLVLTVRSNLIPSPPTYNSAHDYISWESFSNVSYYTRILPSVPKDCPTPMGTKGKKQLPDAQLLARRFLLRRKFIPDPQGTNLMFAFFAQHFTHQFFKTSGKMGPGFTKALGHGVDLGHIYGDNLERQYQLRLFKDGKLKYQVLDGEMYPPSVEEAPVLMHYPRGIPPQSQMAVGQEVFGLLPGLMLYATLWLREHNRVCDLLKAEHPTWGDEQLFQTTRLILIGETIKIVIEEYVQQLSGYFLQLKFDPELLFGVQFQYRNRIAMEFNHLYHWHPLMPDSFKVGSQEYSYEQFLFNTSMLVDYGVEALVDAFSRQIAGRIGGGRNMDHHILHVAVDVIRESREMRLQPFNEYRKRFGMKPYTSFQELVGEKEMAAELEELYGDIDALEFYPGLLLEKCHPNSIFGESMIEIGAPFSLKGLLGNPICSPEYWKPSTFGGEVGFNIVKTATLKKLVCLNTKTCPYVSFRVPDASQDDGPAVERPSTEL
Description: Percentage inhibition activity at a concentration of 10 uM against cyclooxygenase 1 with the compound dissolved in DMSO

[3] = target: T3, Prostaglandin G/H synthase 2 (Homo sapiens, UniProt P35354); test: In vitro inhibition activity against cyclooxygenase 2 with the compound dissolved in DMSO
T3 sequence (P35354 whole entry): T1 sequence (whole entry)

[4] = target: T2, Prostaglandin G/H synthase 1; test: In vitro inhibition activity against cyclooxygenase 1 with the compound dissolved in DMSO
[5] = Inhibition of growth of HCT116 cell line after 24+72 hours of exposure time with the compound dissolved in DMSO; type: functional, cell-based; conditions: Homo sapiens, HCT-116, 72 h
HT-29 [6] = test: Inhibition of growth of HT-29 cell line after 24+72 hours of exposure time with the compound dissolved in DMSO; type: functional, cell-based; conditions: Homo sapiens, HT-29, 72 h
HT-29 [7] = test: Inhibition of growth of HT-29 cell line after 72+72 hours of exposure time with the compound dissolved in DMSO; type: functional, cell-based; conditions: Homo sapiens, HT-29, 72 h
HCT-8 [8] = test: Inhibition of growth of HCT-8 cell line after 96 hours of exposure time with the compound dissolved in DMSO; type: functional, cell-based; conditions: Homo sapiens, HCT-8, 96 h
DLD-1 [9] = test: Inhibition of growth of DLD-1 cell line after 24+72 hours of exposure time with the compound dissolved in DMSO; type: functional, cell-based; conditions: Homo sapiens, DLD-1, 72 h
[10] = Inhibition of growth of H630 cell line after 72 hours of exposure time with the compound dissolved in DMSO; type: functional, cell-based; conditions: Homo sapiens, NCI-H630, 72 h
DLD-1 [11] = test: Inhibition of growth of DLD-1 cell line after 72 hours of exposure time with the compound dissolved in DMSO; type: functional, cell-based; conditions: Homo sapiens, DLD-1, 72 h
[12] = Inhibition of growth of HCT116 cell line after 72+72 hours of exposure time with the compound dissolved in DMSO; type: functional, cell-based; conditions: Homo sapiens, HCT-116, 72 h
HCT-116 = test: Inhibition of growth of HCT116 cell line after 72 hours of exposure time with the compound dissolved in DMSO; type: functional, cell-based; conditions: Homo sapiens, HCT-116, 72 h
[13] = Inhibition of growth of H630 cell line after 96 hours of exposure time with the compound dissolved in DMSO; type: functional, cell-based; conditions: Homo sapiens, NCI-H630, 96 h
HT-29 [14] = test: Inhibition of growth of HT-29 cell line after 72 hours of exposure time with the compound dissolved in DMSO; type: functional, cell-based; conditions: Homo sapiens, HT-29, 72 h
[15] = Inhibition of growth of HCT116 cell line after 96 hours of exposure time with the compound dissolved in DMSO; type: functional, cell-based; conditions: Homo sapiens, HCT-116, 96 h
HT-29 [16] = test: Inhibition of growth of HT-29 cell line after 96 hours of exposure time with the compound dissolved in DMSO; type: functional, cell-based; conditions: Homo sapiens, HT-29, 96 h
DLD-1 [17] = test: Inhibition of growth of DLD-1 cell line after 72+72 hours of exposure time with the compound dissolved in DMSO; type: functional, cell-based; conditions: Homo sapiens, DLD-1, 72 h
DLD-1 [18] = test: Inhibition of growth of DLD-1 cell line after 96 hours of exposure time with the compound dissolved in DMSO; type: functional, cell-based; conditions: Homo sapiens, DLD-1, 96 h
HCT-8 [19] = test: Inhibition of growth of HCT-8 cell line after 72 hours of exposure time with the compound dissolved in DMSO; type: functional, cell-based; conditions: Homo sapiens, HCT-8, 72 h

| inhibition [1] [%] | inhibition [2] [%] | IC50 [3] [µM] | IC50 [4] [µM] | IC50 (HT-29 [6]) [µM] | IC50 (HT-29 [7]) [µM] | IC50 (HCT-8 [8]) [µM] | IC50 (DLD-1 [9]) [µM] | IC50 (DLD-1 [11]) [µM] | IC50 (HCT-116) [µM] | IC50 (HT-29 [14]) [µM] | IC50 (HT-29 [16]) [µM] | IC50 (DLD-1 [17]) [µM] | IC50 (DLD-1 [18]) [µM] | IC50 (HCT-8 [19]) [µM] | SMILES | IC50 [5] [µM] | IC50 [10] [µM] | IC50 [12] [µM] | IC50 [13] [µM] | IC50 [15] [µM] |
| --- | --- | --- | --- | --- | --- | --- | --- | --- | --- | --- | --- | --- | --- | --- | --- | --- | --- | --- | --- | --- |
| 0 | 8 |  |  |  |  |  |  |  |  |  |  |  |  |  | CCCN1C(=O)CS/C1=N/c1ccccc1 |  |  |  |  |  |
|  |  | 1.12 | 53.7 |  |  |  |  |  |  |  |  |  |  |  | COc1ccc(C2SCC(=O)N2CCN2C(=O)CSC2c2ccc(OC)cc2)cc1 (stereo not given) |  |  |  |  |  |
| 0 | 0 |  |  | 71.7 | 31.4 | 82.2 | 40.1 | 37.4 | 48.8 | 38.8 | 59.7 | 31.4 | 17.8 | 100 | O=C1NC(=O)/C(=C/c2cccc(C(F)(F)F)c2)S1 | 91.7 | 97.6 | 36.8 | 83.2 | 45.5 |
| 24 | 0 |  |  | 92.8 | 36.2 | > 100 | > 100 | > 100 | > 100 | 64.1 | 23.4 | > 100 | 13.1 | > 100 | CCCN1C(=O)/C(=C/c2cccc(OC)c2)S/C1=N/c1ccccc1 | > 100 | > 100 | > 100 | > 100 | 34.2 |
